Data: ChEMBL document CHEMBL1201862, “PubChem BioAssay data set” (2004)
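Growth conditions: 96-well plates. Treatment: test compound, 48 hours, 5 concentrations. Analysis: linear interpolation between bracketing concentrations; unreached endpoints set to highest concentration. GI50: concentration for 50% inhibition of growth.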 Calls of active or inactive are those of the source. Rule as the data show it: active = GI50 up to about 1.1 µM and inactive = higher.

Columns and labels:
Assay in all cases: growth of human tumour cells (NCI), 48 h
786-0 = test system: 786-0
CCRF-CEM = test system: CCRF-CEM
EKVX = test system: EKVX
HOP-62 = test system: HOP-62
HT-29 = test system: HT-29
K562 = test system: K562
LOX IMVI = test system: LOX IMVI
MDA-N = test system: MDA-N
SF-268 = test system: SF-268
SK-MEL-28 = test system: SK-MEL-28
SN12C = test system: SN12C
SW-620 = test system: SW-620
COLO 205 = test system: COLO 205
HCC 2998 = test system: HCC 2998
NCI-H226 = test system: NCI-H226
NCI/ADR-RES = test system: NCI/ADR-RES
NCI-H522 = test system: NCI-H522
RXF 393 = test system: RXF 393
SF-539 = test system: SF-539
SR = test system: SR

Row | Structure (SMILES) | GI50 (786-0) | GI50 (CCRF-CEM) | GI50 (EKVX) | GI50 (HOP-62) | GI50 (HT-29) | GI50 (K562) | GI50 (LOX IMVI) | GI50 (MDA-N) | GI50 (SF-268) | GI50 (SK-MEL-28) | GI50 (SN12C) | GI50 (SW-620) | GI50 (COLO 205) | GI50 (HCC 2998) | GI50 (NCI-H226) | GI50 (NCI/ADR-RES) | GI50 (NCI-H522) | GI50 (RXF 393) | GI50 (SF-539) | GI50 (SR)
1 | N#Cc1nc(C(=O)c2ccccc2)oc1N | > 100 µM (inactive) | > 100 µM (inactive) | 65.5 µM (inactive) | > 100 µM (inactive) | > 100 µM (inactive) | > 100 µM (inactive) | > 100 µM (inactive) | > 100 µM (inactive) | > 100 µM (inactive) | > 100 µM (inactive) | > 100 µM (inactive) | > 100 µM (inactive) |  |  |  |  |  |  |  | 
2 | NC(=O)c1ccc(NS(=O)(=O)c2ccc(N)cc2)nc1 | > 100 µM (inactive) | > 100 µM (inactive) | > 100 µM (inactive) | > 100 µM (inactive) | > 100 µM (inactive) | > 100 µM (inactive) | > 100 µM (inactive) | > 100 µM (inactive) | > 100 µM (inactive) | > 100 µM (inactive) | > 100 µM (inactive) | > 100 µM (inactive) | > 100 µM (inactive) | > 100 µM (inactive) | > 100 µM (inactive) | > 100 µM (inactive) |  |  |  | 
3 | NC(=O)Nc1c(Cl)cc(S(N)(=O)=O)cc1Cl | > 100 µM (inactive) | > 100 µM (inactive) | > 100 µM (inactive) | > 100 µM (inactive) | > 100 µM (inactive) | > 100 µM (inactive) | > 100 µM (inactive) | > 100 µM (inactive) | > 100 µM (inactive) | > 100 µM (inactive) | > 100 µM (inactive) | > 100 µM (inactive) | > 100 µM (inactive) |  | > 100 µM (inactive) | > 100 µM (inactive) | > 100 µM (inactive) | > 100 µM (inactive) | > 100 µM (inactive) | 
4 | CN(C)/C=N\c1nncc2[nH]cnc12 | > 100 µM (inactive) | 46.1 µM (inactive) | > 100 µM (inactive) | 60.1 µM (inactive) | > 100 µM (inactive) | 43.6 µM (inactive) | 55.8 µM (inactive) | 79.8 µM (inactive) |  | > 100 µM (inactive) | > 100 µM (inactive) | 82.6 µM (inactive) | > 100 µM (inactive) | > 100 µM (inactive) | > 100 µM (inactive) | > 100 µM (inactive) | > 100 µM (inactive) |  | > 100 µM (inactive) | 
5 | CS(=O)(=O)O[C@H]1CN2C[C@@H](O)[C@@H](O)[C@H]2[C@H]1CO.[B] | > 100 µM (inactive) | 0.333 µM (active) | > 100 µM (inactive) | > 100 µM (inactive) | > 100 µM (inactive) | > 100 µM (inactive) | > 100 µM (inactive) |  | > 100 µM (inactive) | > 100 µM (inactive) |  | > 100 µM (inactive) | > 100 µM (inactive) | > 100 µM (inactive) | > 100 µM (inactive) | > 100 µM (inactive) |  | > 100 µM (inactive) | > 100 µM (inactive) | > 100 µM (inactive)
6 | Cc1cc(NC(=O)NC(=O)c2ccccc2[N+](=O)[O-])ccc1Oc1ncc(Cl)cn1 | 0.0671 µM (active) | 0.0552 µM (active) |  | 0.0581 µM (active) | 0.0488 µM (active) | 0.037 µM (active) | 0.133 µM (active) | < 0.01 µM (active) | 1.9 µM (inactive) | 2.37 µM (inactive) | 0.492 µM (active) | 0.0501 µM (active) | 0.107 µM (active) | 0.146 µM (active) | 0.232 µM (active) |  | 0.0402 µM (active) | 0.0447 µM (active) | 0.0883 µM (active) | 
7 | COC1OC(C)C(NC(=O)OCC(Cl)(Cl)Cl)C2OC(C)(C)OC12 (stereo unspecified) | > 100 µM (inactive) | > 100 µM (inactive) | > 100 µM (inactive) | > 100 µM (inactive) | > 100 µM (inactive) | > 100 µM (inactive) | > 10 µM (inactive) |  | > 100 µM (inactive) | > 100 µM (inactive) | > 100 µM (inactive) | > 100 µM (inactive) | > 100 µM (inactive) | > 100 µM (inactive) | > 100 µM (inactive) | > 100 µM (inactive) | > 100 µM (inactive) | > 100 µM (inactive) | > 100 µM (inactive) | > 100 µM (inactive)
